According to patent publication US11413328B2, “Methods for treating inflammatory conditions of the lungs” (priority 2016, dated 2022):

How the values were obtained:
[1] = tested on: murine house dust mite/Freunds complete adjuvant driven model of allergic asthma; experiment: Total and differential cell counts in BALF, HDM asthma model (Example 2); format: in vivo, BALB/c mice; settings: dexamethasone orally 1 mg/kg BID day 14; 48 hours post challenge
Experimental: Female 7-10 weeks old BALB/c mice were randomly allocated into 7 study groups one day prior to study start and subcutaneously (SC) sensitized to house dust mite (100 μg HDM in 200 μL saline plus Freunds complete adjuvant in 0.9% saline). Mice were then intranasally (IN) challenged with HDM on day 14 (HDM 25 μg in 50 μL of saline). […] The initial dose was administered 60 minutes prior to challenge, and the subsequent doses approximately 6 hours apart. Airway inflammation: At 48 hours post challenge, bronchoalveolar lavage was performed washing the lungs with 3 volumes of cold PBS (0.4; 0.3 and 0.3 mL, total 1 mL). Total and differential leucocyte cell counts were determined on an automated haematological analyser Sysmex XT-2000iV.

[2] = tested on: Dextran Sodium Sulphate (DSS) induced colitis model; experiment: Acute 10-day DSS induced colitis model (Example 7); format: in vivo, mice; settings: Pred 1 mg/kg orally daily
Experimental: To determine and assess the anti-inflammatory effect of “hBD-2-albumin fusion C-terminal” in an acute 10-day Dextran Sodium Sulphate (DSS) induced colitis model in mice.
“hBD-2-albumin C-terminal” was administered intravenously via the tail vein or subcutaneously with the use of a sterile 25G needle in a dosing volume of 10 ml/kg body weight. The animals received 1 dose daily for 10 […] days. The active control Prednisolone (Pred) was given orally by gavage at a dose of 1 mg/kg in a dosing volume of 10 ml/kg body weight OD.

[3] = tested on: microbiota of the intestine; experiment: 16S microbiota analysis, interventional defensin treatment in diet-induced obese mice (Example 11); format: in vivo; settings: intervention
Description: The experiment elucidates the effect of hBD2 and HD5 on the microbiota in diet-induced obese mice. A run-in period of 13 weeks where mice were fed a very HFD (60% energy from fat) preceded the intervention. Only mice meeting the criteria of a minimum of 12 gram weight gain (approximately 50% of initial bodyweight) during the run-in period were included in the final analyses. […] They were exposed to all experimental tests, but excluded from the analyses.
Before the intervention all mice were MR scanned. Cages of mice were allocated to experimental groups based on their fat mass. All subsequent measures were paired with data from the same mouse before the intervention. A LFD (low fat diet) reference group was running in parallel. As controls for the intervention 2 additional groups were included: 1 very HFD and 1 LFD. Experimental mice stayed on the very HFD during the intervention. The mice were on the experimental diet for 10 weeks. They were co-housed throughout the experiment, 4 mice per cage, 3 cages per group. All tests ran over 3 days, 1 cage per group per day.
Microbial analyses were carried out to study the microbiota of the intestine. Longitudinal 16S characterization was conducted on 4 paired samples from 60 mice, 240 samples in total. Each mouse was sampled prior to diet change, 1 week post diet change, 4 weeks post diet change and at termination, thus ensuring a thorough characterization of the faecal microbiota as a result of defensin treatment.

[4] = tested on: microbiota of the intestine; experiment: 16S microbiota analysis, prophylactic defensin treatment in high fat diet model (Example 10); format: in vivo, mice
Description: Mice were housed in trios, 4 cages per group. Feed intake was registered daily just before lights were turned off at […]. Individual mice were subjected to experimental procedures in altered order both group and cage wise. Mice were kept at room temperature under a 12-hour light/dark cycle at SPF standard conditions. The treatment regime is described in FIG. 38. Mice were fed either a high fat diet (HFD) or a low fat (LF) control diet. The HFD contained 4 subgroups; 1 hBD2, 1 HD5, 1 hBD2/HD5 and 1 standard HFD without supplementation of defensins. Defensin concentration was 1.2 mg hBD2 per kg mouse per day. HD5 was given in equimolar concentration to hBD2. […] Microbial analyses were carried out to study the microbiota of the intestine. Longitudinal 16S characterization was conducted on 4 paired samples from 60 mice, 240 samples in total. Each mouse was sampled prior to diet change, 1 week post diet change, 4 weeks post diet change and at termination, thus ensuring a thorough characterization of the faecal microbiota as a result of defensin treatment.

C[C@@H]1C[C@H]2[C@@H]3CCC4=CC(=O)C=C[C@]4(C)[C@@]3(F)[C@@H](O)C[C@]2(C)[C@@]1(O)C(=O)CO [Dexamethasone, reference compound]
neutrophil count in BALF [1]: failed to inhibit

C[C@]12C=CC(=O)C=C1CC[C@@H]1[C@@H]2[C@@H](O)C[C@@]2(C)[C@H]1CC[C@]2(O)C(=O)CO [Pred, Prednisolone]
histological injury, proximal part of the colon [2]: failed to significantly reduce | DAI ([2]; day 9, p<0.05): significant inhibition | histological injury, distal colon ([2]; p<0.01): did reduce

human intestinal alpha defensin 5 (ATCYCRTGRCATRESLSGVCEISGRLYRLCCR; listed as Homo sapiens) [HD5]
abundance of Alloprevotella in the colon ([3]; HD5 p<0.02): increased the abundance of Alloprevotella statistically significantly | relative abundance of Bifidobacteriaceae in the small intestine ([3]; hBD2 p<0.0001): trend towards HD5 increasing the abundance | effect on microbial presence / microbial abundance ([4]; 1.2 mg hBD2 per kg per day in feed, HD5 equimolar, combination 50% + 50%): affected primarily the microbial abundance | abundance of Allobaculum in the small intestine ([4]; prophylaxis, p<0.02): statistically significant increase
